From paper PMC10046961, “High-Throughput Screening Assay for Detecting Drug-Induced Changes in Synchronized Neuronal Oscillations and Potential Seizure Risk Based on Ca^2+ Fluorescence Measurements in Human Induced Pluripotent Stem Cell (hiPSC)-Derived Neuronal 2D and 3D Cultures” (Cells, 2023)
Where two headings read alike, the source gives them in different places.

Tests used:
[1] = humans; cited from earlier work
[2] = cited from earlier work
[3] = test system: hiPSC-derived neurons co-cultured with human primary astrocytes in 2D; experiment: Ca2+ transient oscillation assay (FDSS), 2D co-culture; type: cell-based; conditions: for activation at 0.37 µM / activation at 1.11 µM / activation at 3.33 µM / activation at 10 µM: Homo sapiens, 1 h, 60 min
Summary of the method: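 hiPSC-derived excitatory neurons (CW50065, Quick-Neuron EX-SeV) co-cultured with human primary astrocytes at 4:1 (10,000:2500 cells per well). Cal-520-loaded cells in HBSS with 2 mM CaCl2 and 10 mM HEPES were pretreated with 0.04% DMSO.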

[4] = ref PharmaPendium, cited from earlier work
[5] = test system: hiPSC-derived neurons co-cultured with human primary astrocytes in 3D; experiment: Ca2+ transient oscillation assay (FDSS), 3D spheroids; type: cell-based; conditions: 60 min
Summary of the method: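 Fura-2 fluorescence was read twice for 20 min each: a baseline 10 min after 0.04% DMSO, and again 60 min after compound addition at nominal final concentration. The 3D co-cultures (1:1 hiPSC neurons from a donor and human astrocytes, 8000 each) matured 5 weeks in BrainPhys medium after a 1-week differentiation.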

[6] = test system: kainic-acid-induced seizures; conditions: cited from earlier work
[7] = read-out: Area under the curve - 2D Mean
[8] = read-out: Peak amplitude - 2D Mean
[9] = read-out: Peak-to-peak interval - 2D Mean

Structure (SMILES): Cc1ccc(Nc2nccc(N(C)c3ccc4c(C)n(C)nc4c3)n2)cc1S(N)(=O)=O [Pazopanib]
- crossing of the blood–brain barrier [1]: does not cross the blood–brain barrier
- seizure risk in humans [2]: does not have a seizure risk
- effect on peak number / Ca2+ neuronal oscillations, in words ([3]; 2D format): significantly reduced peak number
- activation at 0.37 µM [3, 7]: -1.8%
- activation at 0.37 µM ([3]; read-out: Peak Number—2D Mean): -49%
- activation at 0.37 µM [3, 8]: -15.8%
- activation at 0.37 µM ([3]; read-out: Peak width - 2D Mean): -4.8%
- activation at 0.37 µM [3, 9]: 14.6%
- activation at 1.11 µM [3, 7]: 7.8%
- activation at 1.11 µM ([3]; read-out: Peak Number—2D Mean): 4.4%
- activation at 1.11 µM [3, 8]: -3.8%
- activation at 1.11 µM ([3]; read-out: Peak width - 2D Mean): 12.6%
- activation at 1.11 µM [3, 9]: -2.6%
- activation at 3.33 µM [3, 7]: 38.8%
- activation at 3.33 µM ([3]; read-out: Peak Number—2D Mean): 11.3%
- activation at 3.33 µM [3, 8]: 11.2%
- activation at 3.33 µM ([3]; read-out: Peak width - 2D Mean): 27.8%
- activation at 3.33 µM [3, 9]: 0.5%
- activation at 10 µM [3, 7]: 16.3%
- activation at 10 µM ([3]; read-out: Peak Number—2D Mean): 10%
- activation at 10 µM [3, 8]: 9.5%
- activation at 10 µM ([3]; read-out: Peak width - 2D Mean): 3.7%
- activation at 10 µM [3, 9]: 14.2%
- Free Cmax ([4]; Table 1, peak plasma concentration in men, free therapeutic Cmax): 600 to 1200 nM
- Free Cmax ([4]; Table 2, highest plasma concentration in humans after the therapeutic dose): 600 to 1200 nM
- Area under the curve - 3D Mean ([5]; 0.37 µM): 125.7 % change from baseline
- Peak Number—3D Mean ([5]; 0.37 µM): 6.4 % change from baseline
- Peak amplitude - 3D Mean ([5]; 0.37 µM): 101.6 % change from baseline
- Peak width - 3D Mean ([5]; 0.37 µM): 9.7 % change from baseline
- Peak-to-peak interval - 3D Mean ([5]; 0.37 µM): −2.0 % change from baseline
- Area under the curve - 3D Mean ([5]; 1.11 µM): 127.9 % change from baseline
- Peak Number—3D Mean ([5]; 1.11 µM): −4.2 % change from baseline
- Peak amplitude - 3D Mean ([5]; 1.11 µM): 110.2 % change from baseline
- Peak width - 3D Mean ([5]; 1.11 µM): 7.7 % change from baseline
- Peak-to-peak interval - 3D Mean ([5]; 1.11 µM): 4.1 % change from baseline
- Area under the curve - 3D Mean ([5]; 3.33 µM): 116.3 % change from baseline
- Peak Number—3D Mean ([5]; 3.33 µM): 0.8 % change from baseline
- Peak amplitude - 3D Mean ([5]; 3.33 µM): 107.5 % change from baseline
- Peak width - 3D Mean ([5]; 3.33 µM): 4.1 % change from baseline
- Peak-to-peak interval - 3D Mean ([5]; 3.33 µM): −3.0 % change from baseline
- Area under the curve - 3D Mean ([5]; 10 µM): 117.4 % change from baseline
- Peak Number—3D Mean ([5]; 10 µM): −2.0 % change from baseline
- Peak amplitude - 3D Mean ([5]; 10 µM): 101.7 % change from baseline
- Peak width - 3D Mean ([5]; 10 µM): 8.7 % change from baseline
- Peak-to-peak interval - 3D Mean ([5]; 10 µM): 7.5 % change from baseline

Structure (SMILES): CC(NC(C)(C)C)C(=O)c1cccc(Cl)c1 (centres unmarked) [Bupropion]
- activation at 0.37 µM [3, 7]: 14.5%
- activation at 0.37 µM ([3]; read-out: Peak Number—2D Mean): 12.7%
- activation at 0.37 µM [3, 8]: 2.7%
- activation at 0.37 µM ([3]; read-out: Peak width - 2D Mean): 12.8%
- activation at 0.37 µM [3, 9]: -5.5%
- activation at 1.11 µM [3, 7]: 26.6%
- activation at 1.11 µM ([3]; read-out: Peak Number—2D Mean): 6.6%
- activation at 1.11 µM [3, 8]: 5.4%
- activation at 1.11 µM ([3]; read-out: Peak width - 2D Mean): 26.6%
- activation at 1.11 µM [3, 9]: 3.4%
- activation at 3.33 µM [3, 7]: 25.5%
- activation at 3.33 µM ([3]; read-out: Peak Number—2D Mean): -12%
- activation at 3.33 µM [3, 8]: 3.7%
- activation at 3.33 µM ([3]; read-out: Peak width - 2D Mean): 29.2%
- activation at 3.33 µM [3, 9]: 19.7%
- activation at 10 µM [3, 7]: 39.3%
- activation at 10 µM ([3]; read-out: Peak Number—2D Mean): 6%
- activation at 10 µM [3, 8]: 4.7%
- activation at 10 µM ([3]; read-out: Peak width - 2D Mean): 46.5%
- activation at 10 µM [3, 9]: 41.8%
- effect on kainic-acid-induced seizures in vitro [6]: attenuate
- Area under the curve - 3D Mean ([5]; 0.37 µM): 137.5 % change from baseline
- Peak Number—3D Mean ([5]; 0.37 µM): 1.3 % change from baseline
- Peak amplitude - 3D Mean ([5]; 0.37 µM): 126.7 % change from baseline
- Peak width - 3D Mean ([5]; 0.37 µM): 0.0 % change from baseline
- Peak-to-peak interval - 3D Mean ([5]; 0.37 µM): 4.1 % change from baseline
- Area under the curve - 3D Mean ([5]; 1.11 µM): 159.9 % change from baseline
- Peak Number—3D Mean ([5]; 1.11 µM): −8.4 % change from baseline
- Peak amplitude - 3D Mean ([5]; 1.11 µM): 134.2 % change from baseline
- Peak width - 3D Mean ([5]; 1.11 µM): 9.4 % change from baseline
- Peak-to-peak interval - 3D Mean ([5]; 1.11 µM): 15.3 % change from baseline
- Area under the curve - 3D Mean ([5]; 3.33 µM): 154.1 % change from baseline
- Peak Number—3D Mean ([5]; 3.33 µM): −2.2 % change from baseline
- Peak amplitude - 3D Mean ([5]; 3.33 µM): 128.1 % change from baseline
- Peak width - 3D Mean ([5]; 3.33 µM): 9.0 % change from baseline
- Peak-to-peak interval - 3D Mean ([5]; 3.33 µM): 7.8 % change from baseline
- Area under the curve - 3D Mean ([5]; 10 µM): 119.7 % change from baseline
- Peak Number—3D Mean ([5]; 10 µM): 12.5 % change from baseline
- Peak amplitude - 3D Mean ([5]; 10 µM): 118.0 % change from baseline
- Peak width - 3D Mean ([5]; 10 µM): −1.4 % change from baseline
- Peak-to-peak interval - 3D Mean ([5]; 10 µM): −3.5 % change from baseline
